Drawing on patent US10682323B2, “Therapeutic agent for glaucoma” (TOA EIYO LTD., priority 2016, dated 2020), this text covers ΔIOP for seven compounds.

The test relates to Rabbits with normal intraocular pressure. Description: Influence on intraocular pressure in rabbits with normal intraocular pressure. The format is in vivo. Particulars: rabbit, 50 μL of 0.1 w/v % solution instilled into one eye, three hours after administration, saline eye minus test eye, average of three. As for the experimental part:
Rabbits (strain: Std:NZW, sex: male) with normal intraocular pressure were acclimated to breeding environment for more than three weeks, and subjected to test (three rabbits per one group).
A test compound was weighed, and a required amount of a 10 mmol/L or 20 mmol/L tris hydrochloric acid buffer solution was added thereto with a micropipette and dissolved therein. If necessary, a 1 mol/L hydrochloric acid or a 1 mol/L sodium hydroxide solution was used to prepare a physiological pH, to obtain the test compound solution (0.1 w/v % solution).
50 μL of the test compound solution was instilled into one eye, and 50 μL of a saline solution was instilled into the other eye as a negative control. Three hours after administration, intraocular pressure was measured. In addition, the measurement of intraocular pressure was repeated in the manner of right eye→left eye→right eye→left eye→ . . . , and continued until the changes of three consecutive intraocular pressures of the right eye and the left eye were within 1 mmHg, respectively. The average of three intraocular pressures at that time was recorded as the intraocular pressure at that time. In addition, ΔIOP (mmHg) was calculated by subtracting the intraocular pressure of the eye for instillation of the test compound solution from the intraocular pressure of the eye for instillation of the saline solution.
In addition, the data represents an average of three tests per one group.

`O=C(O)CCCCN(CCc1ccccc1OCc1ccc(CCc2ccccc2)cc1)Cc1ccc(C(=O)O)cc1` [Comparative Compound 1, reference compound] registered a ΔIOP of 0.3 mmHg.

Turning to `O=C(O)CCCCN(CCc1ccccc1OCc1ccc(CCc2ccccc2)cc1)C1COc2cc(C(=O)O)ccc21` (stereo not shown) [Comparative Compound 2, reference compound], the ΔIOP is 1.5 mmHg.

With `N#Cc1cccc([C@H](CN(CCCCC(=O)O)Cc2ccc(C(=O)O)cc2)OCc2ccc(Oc3ccccc3)cc2)c1` [Comparative Compound 3, reference compound], the ΔIOP worked out at 1.1 mmHg.

Compound `CC(C)(C)c1cc(CO[C@@H](CN(CCCCC(=O)O)Cc2ccc(C(=O)O)cc2)c2ccccc2)cc(C(C)(C)C)c1` [Comparative Compound 4, reference compound] registered a ΔIOP of 0.2 mmHg.

`O=C(O)CCCCN(Cc1ccc(C(=O)O)cc1)C[C@H](OCc1ccc(CCc2ccc(Cl)cc2)cc1)c1ccccc1` [Compound No. 6, (−)-4-([N-(4-carboxybutyl)-N-[(2R)-2-[4-[2-(4-chlorophenyl)ethyl]benzyloxy]-2-phenylethyl]amino]methyl)benzoic acid]: the ΔIOP was 3.4 mmHg.

Regarding `O=C(O)CCCCN(CCc1ccccc1OCc1cccc2c1CCCC2)[C@H]1CCCc2cc(C(=O)O)ccc21` [Compound No. 8, (+)-(5S)-5-[N-(4-carboxybutyl)-N-[2-[2-(5,6,7,8-tetrahydronaphthalene-1-ylmethoxy)phenyl]ethyl]amino]-5,6,7,8-tetrahydronaphthalene-2-carboxylic acid], the ΔIOP is reported as 5.2 mmHg.

Regarding `O=C(O)CCCCN(Cc1ccc(C(=O)O)cc1)C[C@H](OCc1ccc(CCc2ccccc2)cc1)c1ccccc1` [Compound No. 14, (−)-4-([N-(4-carboxybutyl)-N-[(2R)-2-[4-(2-phenylethyl)benzyloxy]-2-phenylethyl]amino]methyl)benzoic acid], the ΔIOP amounted to 5.0 mmHg.
